Assay results reported in paper PMC6105804, “In Vitro and In Vivo Evaluation of APX001A/APX001 and Other Gwt1 Inhibitors against Cryptococcus” (Antimicrobial Agents and Chemotherapy, 2018).
Like-named read-outs stand apart in the source and are kept apart here.

What was measured:
A. fumigatus MYA3626 = experiment: Broth microdilution susceptibility testing for molds (CLSI M38-A2); type: cell-based; conditions: Aspergillus fumigatus, MYA3626; read-out: MIC or MEC for A. fumigatus MYA3626
Method in brief: (§1)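 CLSI broth microdilution (M27-A3 yeasts, M38-A2 molds), final 2 to 0.002 µg/ml, 35 °C for 40-48 h (C. albicans, A. fumigatus) or 72 h (C. neoformans). MIC for yeasts at 50% growth reduction versus DMSO control. A. fumigatus endpoint is MEC, lowest concentration shortening hyphae.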

C. neoformans = experiment: Broth microdilution susceptibility testing (CLSI M27-A3); type: cell-based, Cryptococcus neoformans; conditions: Cryptococcus neoformans
Method in brief: as §1

C. gattii = experiment: as above; type: cell-based; conditions: Cryptococcus gattii
Method in brief: as §1

[1] = test system: FLC-susceptible and FLC-nonsusceptible/resistant strains of C. neoformans and C. gattii; experiment: Broth microdilution, summary over the 18-strain Cryptococcus collection; type: cell-based, Cryptococcus neoformans and Cryptococcus gattii; conditions: 18 strains of C. neoformans and C. gattii; for MIC: read-out: Geometric mean MIC
Method in brief: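 CLSI M27-A3 broth microdilution was run with final drug concentrations of 2 to 0.002 μg/ml from DMSO dilutions, incubated at 35°C for 72 h for C. neoformans. MIC was the lowest concentration giving 50% growth reduction versus the no-drug control, read with a mirror.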

C. albicans 90028 = experiment: Broth microdilution susceptibility testing (CLSI M27-A3); type: cell-based, Candida albicans; conditions: Candida albicans, 90028; read-out: MIC, C. albicans 90028
Method in brief: as §1

[2] = 72 h, Table 1, 50% growth inhibition for FLC, caspofungin and APX compounds, 100% for AMB, 72 h, read-out: MIC, C. neoformans H99
[3] = C. neoformans isolate 14116, read-out: MIC
[4] = C. neoformans isolate 76484, read-out: MIC
[5] = C. neoformans isolate DUMC 118.00 (FLC resistant), read-out: MIC
[6] = C. neoformans isolate DUMC 158.03 (FLC resistant), read-out: MIC
[7] = C. neoformans isolate MYA-4564, read-out: MIC
[8] = C. neoformans isolate MYA-4565, read-out: MIC
[9] = C. neoformans isolate MYA-4566, read-out: MIC
[10] = C. neoformans isolate MYA-4567, read-out: MIC
[11] = Table 2, C. neoformans isolate H99, read-out: MIC
[12] = C. gattii isolate MYA-4093, read-out: MIC
[13] = C. gattii isolate MYA-4094, read-out: MIC
[14] = C. gattii isolate MYA-4560 (first listing, r17), read-out: MIC
[15] = C. gattii isolate MYA-4560 (second listing, r21), read-out: MIC
[16] = C. gattii isolate MYA-4561, read-out: MIC
[17] = C. gattii isolate MYA-4562, read-out: MIC
[18] = C. gattii isolate MYA-4563, read-out: MIC
[19] = C. gattii isolate MYA-4877, read-out: MIC
[20] = C. gattii isolate RSA-MW-3615 (FLC resistant), read-out: MIC
[21] = Table 1, 50% growth inhibition for FLC, caspofungin and APX compounds, 100% for AMB, read-out: MIC, C. gattii WM276

| MIC (A. fumigatus MYA3626) [µg/mL] | MIC (C. neoformans; [2]) [µg/mL] | MIC (C. neoformans; [3]) [µg/mL] | MIC (C. neoformans; [4]) [µg/mL] | MIC (C. neoformans; [5]) [µg/mL] | MIC (C. neoformans; [6]) [µg/mL] | MIC (C. neoformans; [7]) [µg/mL] | MIC (C. neoformans; [8]) [µg/mL] | MIC (C. neoformans; [9]) [µg/mL] | MIC (C. neoformans; [10]) [µg/mL] | MIC (C. neoformans; [11]) [µg/mL] | MIC (C. gattii; [12]) [µg/mL] | MIC (C. gattii; [13]) [µg/mL] | MIC (C. gattii; [14]) [µg/mL] | MIC (C. gattii; [15]) [µg/mL] | MIC (C. gattii; [16]) [µg/mL] | MIC (C. gattii; [17]) [µg/mL] | MIC (C. gattii; [18]) [µg/mL] | MIC (C. gattii; [19]) [µg/mL] | MIC (C. gattii; [20]) [µg/mL] | Structure (SMILES) | also measured |
| --- | --- | --- | --- | --- | --- | --- | --- | --- | --- | --- | --- | --- | --- | --- | --- | --- | --- | --- | --- | --- | --- |
| > 16 | 2 | 4 | 4 | 64 | 32 | 4 | 1 | 2 | 1 | 1 | 2 | 2 | 1 | 1 | 4 | 2 | 4 | 4 | 64 | OC(Cn1cncn1)(Cn1cncn1)c1ccc(F)cc1F [FLC, fluconazole, reference compound] | MIC (C. gattii; [21]): 1 µg/mL; MIC90 [1]: 64 µg/mL; MIC [1]: 3.56 µg/mL; MIC (C. albicans 90028): 0.5 µg/mL |
| 0.016 | 0.25 | 0.125 | 0.125 | 0.25 | 0.25 | 0.125 | 0.5 | 0.25 | 0.25 | 0.125 | 0.5 | 0.25 | 0.25 | 0.25 | 0.5 | 0.25 | 0.5 | 0.25 | 0.125 | Nc1ncccc1-c1cc(Cc2ccc(COc3ccccn3)cc2)no1 [APX001A] | MIC (C. gattii; [21]): 0.125 µg/mL; MIC90 [1]: 0.5 µg/mL; MIC [1]: 0.241 µg/mL; MIC (C. albicans 90028): 0.008 µg/mL |
